Data on four molecules can be found in patent EP3461488A1, “COMBINATION OF A DBAIT MOLECULE AND A HDAC INHIBITOR FOR TREATING CANCER” (ONXEO, priority 2017, dated 2019).

Series [1] deals with triple negative breast cancer cell line MDA-MB-231. The experiment in a line: XTT cell survival assay and combination index analysis, MDA-MB-231. Type of series: cell-based. The following applies: Homo sapiens. For orientation: Formazan colour is commonly taken as a measure of viable cells.
Procedure: Cells were grown according to the supplier's instructions.
In a first step, the characterization of the effect of drugs monotherapy on cell survival (tumour and non-tumour cells) was performed. […] Following drug exposure, cell survival was measured using the XTT assay (Sigma Aldrich). […] Cell survival was calculated as the ratio of living treated cells to living mock-treated cells.
(§1) In a second step, analysis and quantification of the drug combination efficacy were performed. Cells were seeded in 96-well plates at the appropriate densities and treated with AsiDNA and/or the HDAC inhibitor (HDACi) belinostat simultaneously during 4 to 7days.
Combination efficacy was evaluated by "the combination index (CI)" which was determined using the CalcuSyn software tool based on the Chou Talalay method). […] Note that we define synergism as a more than expected additive effect, and antagonism as a less than expected additive effect.
In a first step, the characterization of the effect of drugs monotherapy on cell survival (tumour and non-tumour cells) was performed. […] Following drug exposure, cell survival was measured using the XTT assay (Sigma Aldrich). […] Cell survival was calculated as the ratio of living treated cells to living mock-treated cells. […] In a second step, analysis and quantification of the drug combination efficacy were performed. […] Cell survival was measured using the XTT assay (see above). Combination efficacy was evaluated by "the combination index (CI)" which was determined using the CalcuSyn software tool based on the Chou Talalay method. […]
In a first step, characterization of the effect of drugs monotherapy on cell survival (tumour and non-tumour cells) was performed. […] Following drug exposure, cell survival was measured using the XTT assay (Sigma Aldrich). […] Cell survival was calculated as the ratio of living treated cells to living mock-treated cells. […] In a second step, analysis and quantification of the drug combination efficacy were performed. […] Cell survival was measured using the XTT assay (see above). […]
The test system of series [2] is histiocytic lymphoma cell line U937. The experiment in a line: XTT cell survival assay and combination index analysis, U937. Type of series: cell-based. The note with it: Homo sapiens, U-937.
Procedure: (§2) Cell cultures were performed with the triple negative breast cancer cell line MDA-MB-231, the histiocytic lymphoma cell line U937 and the non-tumor mammary cell line MCF-10A. Cells were grown according to the supplier's instructions. Cell lines were maintained at 37°C in a humidified atmosphere at 5% CO2, except the MDA-MB-231 cell line which was maintained at 0% CO2.
(§3) In a first step, the characterization of the effect of drugs monotherapy on cell survival (tumour and non-tumour cells) was performed. MDA-MB-231 (5.10^3 cells/well), MCF-10A (5.10^3 cells/well) and U937 (2.10^4 cells/well) were seeded in 96 well-plates and incubated 24 hours at +37°C before drug addition with increasing concentrations for 4 to 7 days. Following drug exposure, cell survival was measured using the XTT assay (Sigma Aldrich). Briefly, the XTT solution was added directly to each well containing cell culture and the cells incubated for 4 to 24 hours at 37°C before reading the absorbance at 490 nm and 690 nm using a microplate reader (BMG Fluostar, Galaxy). Cell survival was calculated as the ratio of living treated cells to living mock-treated cells. The IC50 (which represents the dose at which 50% of the cells are viable) was calculated by a non-linear regression model using GraphPad Prism software (version 5.04) by plotting the percentage viability against the Log of the drug concentration on each cell line.
The subject of series [3] is non-tumor mammary cell line MCF-10A. The experiment in a line: XTT cell survival assay, non-tumor cells MCF-10A. The note with it: same drug doses as MDA-MB-231, 7 days after treatment, result in words.
Procedure: as §2, §3, §1
In a first step, the characterization of the effect of drugs monotherapy on cell survival (tumour and non-tumour cells) was performed. MDA-MB-231 (5.10^3 cells/well), MCF-10A (5.10^3 cells/well) and U937 (2.10^4 cells/well) were seeded in 96 well-plates and incubated 24 hours at +37°C before drug addition with increasing concentrations for 4 to 7 days. Following drug exposure, cell survival was measured using the XTT assay (Sigma Aldrich). Briefly, the XTT solution was added directly to each well containing cell culture and the cells incubated for 4 to 24 hours at 37°C before reading the absorbance at 490 nm and 690 nm using a microplate reader (BMG Fluostar, Galaxy). Cell survival was calculated as the ratio of living treated cells to living mock-treated cells. […] In a second step, analysis and quantification of the drug combination efficacy were performed. […] Cell survival was measured using the XTT assay (see above). Combination efficacy was evaluated by "the combination index (CI)" which was determined using the CalcuSyn software tool based on the Chou Talalay method. […]
Setting [4] is: XTT assay, monotherapy, increasing concentrations for 4 to 7 days, dose at which 50% of the cells are viable, read-out: IC50.
Where [5] appears, read: U937, XTT assay, monotherapy, increasing concentrations for 4 to 7 days, dose at which 50% of the cells are viable, read-out: IC50.

pIC50: −log10 of the molar value. Read-outs that look alike come from different tables or passages of the source.

Regarding `O=C(/C=C/c1cccc(S(=O)(=O)Nc2ccccc2)c1)NO` [Belinostat, (2E)-N-hydroxy-3-[3-(phenylsulfamoyl)phenyl]prop-2-enamide], the pIC50 in series [1] (setting [4]) and in series [2] (setting [5]) was 6.60 throughout. Moreover, in series [3], the “cell survival of non-tumor cells (sensitivity)” value (from here on “cell survival of non-tumor cells”) was “insensitive”.
For `Nc1ccccc1NC(=O)c1ccc(CNC(=O)OCc2cccnc2)cc1` [Entinostat], the pIC50 – broadly, −log10 of the IC50, conventionally taken in molar units – in series [1] (setting [4]) is 7.00; in series [2] (setting [5]), 8.00. Besides, the “cell survival of non-tumor cells” value in series [3] is “insensitive”.
As to `C/C=C1\NC(=O)[C@H]2CSSCC/C=C/[C@H](CC(=O)N[C@H](C(C)C)C(=O)N2)OC(=O)[C@H](C(C)C)NC1=O` [Romidepsin], the pIC50 is 9.40 in series [1] and 9.00 in series [2]. Also, in series [3], the “cell survival of non-tumor cells” value is “showed a sensitivity”.
In the case of `O=C(CCCCCCC(=O)Nc1ccccc1)NO` [Vorinostat, N-hydroxy-N'-phenyloctanediamide], the “cell survival of non-tumor cells” value in series [3] is listed as “showed a sensitivity”.
